# According to patent US20230055457A1, “CELL EXPANSION METHODS FOR PREVENTING CELL SENESCENCE AND PRESERVING THE THERAPEUTIC POTENCY OF HUMAN MESENCHYMAL STEM CELLS” (THE FLORIDA STATE UNIVERSITY RESEARCH FOUNDATION, INC., priority 2020, published 2023):
# “Also recorded” adds a separate entry of the source.
# Assays:
# [1] = test system: muscle stem cells (muscle-SCs) and hematopoietic stem cells (HSC); conditions: aged muscle-SCs and HSCs, restoring autophagy; cited from earlier work
# senescent hMSCs [2] = experiment: Intracellular NAD+ and NADH level of hMSCs; format: cell-based, human
# Description: (§1) hMSCs at passage 2 were expanded and cultured in complete culture medium(CCM). Cells were grown to 70-80% confluence and then harvested by incubation with 0.25% trypsin/EDTA. Harvested cells were re-plated at a density of 2,000 cells/cm^2 and sub-cultured up to Passage 12 in a standard CO2 incubator. hMSC sat Passage 5 (P5) and passage 12 (P12) were used for experiments. Stem cell properties including senescence, stem cell gene, cell cycle, proliferation rate were determined. Gas chromatography-mass spectrometry (GC-MS) and seahorse flux analyzer were used for characterization of energy metabolism phenotype. Mitochondrial functions were assessed by mitochondrial mass, membrane potential, electron transport complex activity and biogenesis. NAD+/NADH and Sirt-1 and -3 level was also measured in P5 and P12 hMSCs. NAD+ precursor nicotinamide (NAM) was used in CCM to adjust NAD+ level intracellularly.
# senescent hMSCs [3] = experiment: Cellular senescence by SA-β-Gal activity assay; format: cell-based, human; conditions: senescent hMSCs with NAM treatment
# Description: Cellular senescence was evaluated by SA-β-Gal activity assay kit (Sigma, St. Louis, Mo.) as described in manufacture instructions.
# senescent hMSCs [4] = experiment: Colony forming unit-fibroblast (CFU-F) assay; format: cell-based, human; conditions: senescent hMSCs with NAM treatment
# Description: Colony forming unit-fibroblast (CFU-F) were determined as following: hMSCs were harvested and re-plated at the density of 15 cells/cm2 on 60 cm2 culture dish and cultured for another 14 days in CCM. Cells were then stained with 20% crystal violet solution in methanol for 15 minutes at room temperature (RT) and washed with phosphate-buffered saline (PBS) wash, the numbers of individual colonies were counted manually.
# senescent hMSCs [5] = experiment: Basal autophagy by Cyto-ID Green flow cytometry; format: cell-based, human; conditions: senescent hMSCs with NAM treatment
# Description: (§2) For autophagy measurement, aliquots of cell suspension were incubated with 20 μM Cyto-ID Green (Enzo Life Sciences, Farmingdale, N.Y.), a fluorescent dye that selectively labels accumulated autophagic vacuoles, at 37° C. for 30 minutes, and analyzed by flow cytometry (BD Biosciences, San Jose, Calif.). For mitophagy measurement, […]
# senescent hMSCs [6] = experiment: Mitochondrial membrane potential (MMP), TMRM flow cytometry; format: cell-based, human; conditions: senescent hMSCs with NAM treatment
# Description: For MMP measurement, trypsinized MSCs were washed by centrifugation in warm Hank's Balanced Salt Solution (HBSS). Cell suspension was incubated with tetramethylrhodamine, methyl ester (TMRM) (Molecular Probe, Eugene, Oreg.) at 37° C., washed with HBSS, and analyzed by flow cytometry (BD Biosciences, San Jose, Calif.).
# [7] = test system: electron transport chain complex I; experiment: Mitochondrial complex I (ETC-I) activity; format: cell-based, human; conditions: senescent hMSCs with NAM treatment
# Description: hMSCs were centrifuged, re-suspended in DI water, and heated immediately in a boiling water bath for 15 minutes. The mixture was centrifuged and ATP containing supernatant was collected. Upon measurement, 10 μL of ATP solution was mixed with 100 μL of the luciferin-luciferase reagent, and the bioluminescent signal was measured using an Orion Microplate Luminometer (Bad Wildbad, Deutschland) after 15 min incubation at room temperature. Activity of mitochondrial complex I was determined using the Complex I Enzyme Activity Microplate Assay Kit (Abcam, Cambridge, Mass.) according to the kit instructions.
# senescent hMSCs [8] = experiment: Mitophagy measurement; format: cell-based, human; conditions: senescent hMSCs with NAM treatment
# Description: as §2
# hMSC = experiment: Mitochondrial fitness of hMSCs; format: cell-based, human
# Description: as §1
# [9] = continuous supplement of NAM (1 mM), FIG. 17
smiles,measurement,setting,value
NCCCCNCCCN [spermidine],stem cell functions in vivo,[1],restored
"NC(=O)c1ccc[n+]([C@@H]2O[C@H](COP(=O)([O-])O)[C@@H](O)[C@H]2O)c1 [NMN, nicotinamide mononucleotide]","boosting intracellular NAD+ level, NAM compared to NMN","senescent hMSCs [2]; stem cells in culture, FIG. 16",NAM is better
"NC(=O)c1cccnc1 [NAM, nicotinamide]",hMSC cellular NAD+ level,senescent hMSCs [2]; [9],maintains
same,Cellular NAD+ level,"senescent hMSCs [2]; late passage hMSCs with culture-induced senescence, 96 h of NAM treatment",significantly increased; also recorded: potential improvement
same,"boosting intracellular NAD+ level, NAM compared to NMN","senescent hMSCs [2]; stem cells in culture, FIG. 16",better
same,"boosting intracellular NAD+ level, NAM compared with NR","senescent hMSCs [2]; stem cells in culture, FIG. 16",no significant difference
same,"hMSC senescence, SA-β-gal activity",senescent hMSCs [3],decreased; also recorded: reduced
same,colony forming ability,senescent hMSCs [4]; in words,improved
same,colony forming ability of hMSCs (CFU-F),senescent hMSCs [4]; control 3 CFU,11 CFU
same,Basal autophagy level,senescent hMSCs [5],restored; also recorded: increased
same,mitochondrial membrane potential (MMP),senescent hMSCs [6],enhanced; also recorded: increased
same,ETC-I activity,[7],enhanced; also recorded: increased
same,mitophagy,senescent hMSCs [8],restored; also recorded: increased
same,mitochondrial fitness,hMSC; [9],maintains
same,recovery of mitochondria,"hMSC; senescent hMSCs, supplement of NAM",recovery
"NC(=O)c1ccc[n+]([C@@H]2O[C@H](CO)[C@@H](O)[C@H]2O)c1 [NR, nicotinamide riboside]","boosting NAD+/NADH ratio, NAM compared with NR","senescent hMSCs [2]; stem cells in culture, FIG. 16",no significant difference
same,"boosting intracellular NAD+ level, NAM compared with NR","senescent hMSCs [2]; stem cells in culture, FIG. 16",no significant difference
